Patent US11220483B2, “Tetrahydro-benzo[d]azepine derivatives as GPR120 modulators” (CALDAN THERAPEUTICS LIMITED, priority 2018, dated 2022)

target: T1, human GPR120 (Homo sapiens, UniProt Q5NUL3); assay: Human GPR120-β Arrestin 2 BRET agonist assay; format: cell-based; settings: HEK293T cells transiently co-expressing hGPR120-eYFP and β-arrestin 2-RLuc; BRET normalised to DMSO (0%) and TUG-891 (100%); read-out: hGPR120 pEC50 (converted)
T1 construct: expressed in transfected cells; host or cells: HEK293T, transient transfection with PEI
T1 sequence (Q5NUL3 1-361): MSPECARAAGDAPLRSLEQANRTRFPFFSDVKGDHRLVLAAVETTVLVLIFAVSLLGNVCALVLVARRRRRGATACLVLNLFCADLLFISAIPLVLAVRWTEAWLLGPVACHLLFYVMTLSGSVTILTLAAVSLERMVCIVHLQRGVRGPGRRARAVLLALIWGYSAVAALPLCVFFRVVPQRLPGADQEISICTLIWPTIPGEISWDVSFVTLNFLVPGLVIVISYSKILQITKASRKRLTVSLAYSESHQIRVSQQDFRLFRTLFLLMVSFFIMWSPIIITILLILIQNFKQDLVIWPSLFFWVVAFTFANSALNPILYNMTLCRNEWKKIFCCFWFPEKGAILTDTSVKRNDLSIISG
Method: pEC50 data was obtained by the following procedure:
Human GPR120-β Arrestin 2 Bio-Luminescence Resonance Energy Transfer (BRET) Agonist Assay Procedure
HEK293T cells were cultured in growth media composed of DMEM L-glutamine media supplemented with 10% (v:v) fetal bovine serum (FBS) and 1% (v:v) 10,000 units penicillin/10 mgml^−1 streptomycin at 37° C., 5% CO2. HEK293T cells transiently co-expressing human GPR120 […] and b-arrestin 2 were generated by transfection with plasmids encoding a construct of hGPR120 […] fused at its C terminal with enhanced yellow fluorescent protein (eYFP), and another encoding β-arrestin 2 fused to Renilla luciferase (RLuc), using Polyethylenimine (PEI) as the transfection reagent.
Transfected cells were cryopreserved in batches for consistency between replicate assays. Twenty-four hours post transfection, cells were harvested with non-enzymatic cell dissociation buffer and re-suspended in DMEM medium supplemented with 10% DMSO and 10% FBS before being transferred first to −80° C. overnight and then to liquid nitrogen for long-term storage. On the day prior to the assay, cells were thawed at 37° C. and re-suspended in growth media. A 96 well white opaque bottom microtitre plate was then seeded with 40,000 cells in a volume of 100 μl growth media per well and seeded plates were then incubated overnight at 37° C., 5% CO2. On the day of the BRET experiment, cells were washed twice with BRET assay buffer (Hanks balanced salt solution (HBSS) supplemented with 10 mM HEPES (pH 7.4)), then 80 μl per well of BRET assay buffer was added before the plate was incubated for 30 minutes at 37° C., 5% CO2. Then, Renilla luciferase substrate coelenterazine h (5 μM) was added to the cells and incubated at 37° C. for 10 minutes before the addition of GPR120 agonist (TUG-891) or test compound for a further 5 minutes at 37° C.
Bio-luminescence at λ 535 nm and λ 475 nm was then measured with a Pherastar FsX instrument, and the λ 535/λ 475 ratio of bio-luminescence was then used to calculate a BRET value. hGPR120 agonist potency values (pEC50) were calculated by normalising the BRET values to the DMSO vehicle (0% control) and TUG-891 (100% control) and then fitting the normalised data to a 3-parameter concentration-response curve.

| EC50 [nM] | Compound |
| --- | --- |
| 1000 | COc1ccc(Cl)cc1N1CCc2cc(CCC(=O)O)ccc2C1 [Compound 29, 3-(2-(5-chloro-2-methoxyphenyl)-1,2,3,4-tetrahydroisoquinolin-6-yl)propanoic acid] |
| 1580 | Cc1cc(C)cc(N2CCc3ccc(CCC(=O)O)cc3C2)c1 [Compound 30, 3-(2-(3,5-dimethylphenyl)-1,2,3,4-tetrahydroisoquinolin-7-yl)propanoic Acid] |
| 2510 | COc1cc(Cl)cc(N2CCc3ccc(CCC(=O)O)cc3C2)c1 [Compound 31, 3-(2-(3-chloro-5-methoxyphenyl)-1,2,3,4-tetrahydroisoquinolin-7-yl)propanoic acid] |
| 1260 | O=C(O)CCc1ccc2c(c1)CN(c1cc(OC(F)(F)F)ccc1F)CC2 [Compound 33] |
| 100 | O=C(O)C1CC1c1ccc2c(c1)CCN(c1cc(OC(F)(F)F)ccc1F)C2 (stereo not drawn) [Compound 35, 2-(2-(2-fluoro-5-(trifluoromethoxy)phenyl)-1,2,3,4-tetrahydroisoquinolin-6-yl)cyclopropane-1-carboxylic acid] |
| 63.1 | O=C(O)C1CC1c1ccc2c(c1)CCN(c1cccc(Oc3ccccc3)c1)C2 (stereo not drawn) [Compound 38, 2-(2-(3-Phenoxyphenyl)-1,2,3,4-tetrahydroisoquinolin-6-yl)cyclopropanecarboxylic Acid] |
| 31.6 | O=C(O)CCc1cc(F)c2c(c1)CCN(c1cc(OC(F)(F)F)ccc1F)C2 [Compound 40, 3-(8-fluoro-2-(2-fluoro-5-(trfluoromethoxy)phenyl)-1,2,3,4-tetrahydroisoquinolin-6-yl)propanoic acid] |
| 31.6 | O=C(O)CCc1cc(F)c2c(c1)CCN(c1cccc(Oc3ccccc3)c1)C2 [Compound 41, 3-(8-fluoro-2-(3-phenoxyphenyl)-1,2,3,4-tetrahydroisoquinolin-6-yl)propanoic acid] |
| 25.1 | O=C(O)CCc1ccc2c(c1)CCN(c1cc(OC(F)(F)F)ccc1F)CC2 [Compound 45, 3-(3-(2-fluoro-5-(trifluoromethoxy)phenyl)-2,3,4,5-tetrahydro-1H-benzo[d]azepin-7-yl)propanoic Acid] |
| 158 | O=C(O)CCc1ccc2c(c1)CCN(c1cc(OC3CC3)ccc1F)CC2 [Compound 47, 3-(3-(5-cyclopropoxy-2-fluorophenyl)-2,3,4,5-tetrahydro-1H-benzo[d]azepin-7-yl)propanoic acid] |
| 200 | CC(C)Oc1ccc(F)c(N2CCc3ccc(CCC(=O)O)cc3CC2)c1 [Compound 48, 3-(3-(2-fluoro-5-isopropoxyphenyl)-2,3,4,5-tetrahydro-1H-benzo[d]azepin-7-yl)propanoic acid] |
| 398 | CC(C)Oc1cc(F)cc(N2CCc3ccc(CCC(=O)O)cc3CC2)c1 [Compound 49, 3-(3-(3-fluoro-5-isopropoxyphenyl)-2,3,4,5-tetrahydro-1H-benzo[d]azepin-7-yl)propanoic acid] |
| 25.1 | O=C(O)CCc1ccc2c(c1)CCN(c1cc(Oc3ccccc3)ccc1F)CC2 [Compound 50, 3-(3-(2-fluoro-5-phenoxyphenyl)-2,3,4,5-tetrahydro-1H-benzo[d]azepin-7-yl)propanoic acid] |
| 501 | C[C@H](Cc1ccc2c(c1)CCN(c1cc(OC(F)(F)F)ccc1F)CC2)C(=O)O [Compound 51, (R)-3-(3-(2-fluoro-5-(trifluoromethoxy)phenyl)-2,3,4,5-tetrahydro-1H-benzo[d]azepin-7-yl)-2-methylpropanoic Acid] |
| 126 | O=C(O)C1CC1c1ccc2c(c1)CCN(c1cc(OC(F)(F)F)ccc1F)CC2 (stereo not drawn) [Compound 52, 2-(3-(2-fluoro-5-(trifluoromethoxy)phenyl)-2,3,4,5-tetrahydro-1H-benzo[d]azepin-7-yl)cyclopropanecarboxylic Acid] |
| 100 | O=C(O)C1CC1c1ccc2c(c1)CCN(c1cc(OC3CCC3)ccc1F)CC2 (stereo not drawn) [Compound 53] |
| 200 | O=C(O)CCc1ccc2c(c1)CCCN(c1cc(OC(F)(F)F)ccc1F)C2 [Compound 54, 3-(2-(2-Fluoro-5-(trifluoromethoxy)phenyl)-2,3,4,5-tetrahydro-1H-benzo[c]azepin-7-yl)propanoic Acid] |

| Compound | EC50 [nM] |
| --- | --- |
| O=C(O)C1CC1c1ccc2c(c1)CCN(c1cc(OC3CCC3)cc(F)c1F)C2 (stereo not drawn) [Compound 36, 2-(2-(5-cyclobutoxy-2,3-difluorophenyl)-1,2,3,4-tetrahydroisoquinolin-6-yl)cyclopropane-1-carboxylic acid] | 100 |
| O=C(O)C1CC1c1ccc2c(c1)CCN(c1nc(OC3CCC3)ccc1F)C2 (stereo not drawn) [Compound 37, 2-(2-(6-cyclobutoxy-3-fluoropyridin-2-yl)-1,2,3,4-tetrahydroisoquinolin-6-yl)cyclopropane-1-carboxylic acid] | 39.8 |
| O=C(O)CCc1cc2c(cc1F)CN(c1cc(OC3CCC3)ccc1F)CC2 [Compound 39, 3-(2-(5-cyclobutoxy-2-fluorophenyl)-7-fluoro-1,2,3,4-tetrahydroisoquinolin-6-yl)propanoic Acid] | 63.1 |
| O=C(O)CCc1cc2c(cc1F)CN(c1cc(F)cc(OC3CCC3)c1)CC2 [Compound 42, 3-(2-(3-Cyclobutoxy-5-fluorophenyl)-7-fluoro-1,2,3,4-tetrahydroisoquinolin-6-yl)propanoic Acid] | 316 |
| O=C(O)CCc1ccc2c(c1)CCN(c1cc(Cl)cc(OC3CCC3)c1)C2 [Compound 43, 3-(2-(3-chloro-5-cyclobutoxyphenyl)-1,2,3,4-tetrahydroisoquinolin-6-yl)propanoic acid] | 20 |
| O=C(O)CCc1ccc2c(c1)CCN(c1nc(OC3CCC3)c(F)cc1F)C2 [Compound 44, 3-(2-(6-Cyclobutoxy-3,5-difluoropyridin-2-yl)-1,2,3,4-tetrahydroisoquinolin-6-yl)propanoic Acid] | 25.1 |
| O=C(O)CCc1ccc2c(c1)CCN(c1cc(OC3CCC3)ccc1F)CC2 [Compound 46, 3-(3-(5-cyclobutoxy-2-fluorophenyl)-2,3,4,5-tetrahydro-1H-benzo[d]azepin-7-yl)propanoic acid] | 79.4 |
